{
  "source": "paper PMC8219695",
  "about": "(Nature Communications, 2021)",
  "key": {"mMOR": {"molecular_target": "T1, mMOR (Mus musculus, UniProt P42866)", "T1 construct": "signal peptide (heterologous, not specified) (N); expressed in transfected cells; pcDNA3.1(+) construct made in house", "T1 sequence (P42866 whole entry)": "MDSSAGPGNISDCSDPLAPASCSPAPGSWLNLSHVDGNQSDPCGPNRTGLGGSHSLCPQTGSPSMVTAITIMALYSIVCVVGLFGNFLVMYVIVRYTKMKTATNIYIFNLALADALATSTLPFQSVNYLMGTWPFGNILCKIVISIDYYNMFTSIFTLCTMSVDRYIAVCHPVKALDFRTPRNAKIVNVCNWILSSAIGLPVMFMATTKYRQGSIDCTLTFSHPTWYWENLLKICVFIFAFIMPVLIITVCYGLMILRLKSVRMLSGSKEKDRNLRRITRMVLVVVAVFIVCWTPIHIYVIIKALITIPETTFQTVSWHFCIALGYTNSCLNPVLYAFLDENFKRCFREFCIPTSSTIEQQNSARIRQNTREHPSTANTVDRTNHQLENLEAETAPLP", "assay": "BRET-based Nb33 recruitment assay at mMOR", "format": "cell-based", "conditions": "for Nb33 BRET assay at mMOR, response: single replicates, source data Fig 7a, listed as 7-OH Mitragynine"}, "mice": {"tested_on": "mice", "conditions": "previously determined; cited from earlier work"}, "hMOR": {"molecular_target": "T2, hMOR (Homo sapiens, UniProt P35372)", "T2 construct": "expressed in transfected cells; plasmid a gift from Dr. Nevin Lambert", "T2 sequence (P35372 whole entry)": "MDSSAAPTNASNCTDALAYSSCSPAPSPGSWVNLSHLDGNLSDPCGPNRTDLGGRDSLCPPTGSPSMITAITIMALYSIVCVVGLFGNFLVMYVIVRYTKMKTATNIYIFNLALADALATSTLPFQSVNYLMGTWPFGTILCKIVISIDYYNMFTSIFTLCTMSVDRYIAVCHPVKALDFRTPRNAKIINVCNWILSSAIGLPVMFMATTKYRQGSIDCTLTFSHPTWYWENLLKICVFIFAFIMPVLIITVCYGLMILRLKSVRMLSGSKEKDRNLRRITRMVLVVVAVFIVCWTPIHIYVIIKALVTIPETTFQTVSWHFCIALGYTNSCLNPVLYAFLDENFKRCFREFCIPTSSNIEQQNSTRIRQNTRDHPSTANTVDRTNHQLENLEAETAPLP", "assay": "cell-based", "conditions": "read-out: Emax hMOR"}, "C57BL/6 mice": {"tested_on": "C57BL/6 mice", "assay": "Tail-flick dose-response in C57BL/6 mice", "format": "in vivo, mouse", "conditions": "s.c.; for mouse tail-flick assay (%MPE): 15 minute time point, individual animals", "protocol": "CD1 mice (n = 10), at peak analgesic time point. […] Dose–response curves of 22 (s.c.), in the tail-flick assay was evaluated 15 min post drug administration in WT, C57 mice (n = 8) and MOR KO mice (n = 5). Each point represents mean ± SEM.\n(§1) For analgesic dose–response experiments, male CD1 mice (20–32 g), 6–8 weeks were obtained from Charles River Laboratories and male C57BL/6 mice (22–30 g), 8–15 weeks were obtained from Jackson Lab (Bar Harbor, ME) and housed 5 mice per cage in a vivarium following an IACUC-approved protocol. For male C57BL/6 mice temperature was kept constant at 22 ± 2 °C, and relative humidity was maintained at 50 ± 5%. For male CD1 mice (20–32 g) the temperature was in the range of 20–26 °C and relative humidity maintained within the range of 30–70%. Mice were given access to food and tap water ad libitum. All mice used throughout the manuscript were opioid naïve. All mice were maintained on a 12 h light/dark cycle with Purina rodent chow and water available ad libitum and housed in groups of five until testing.\nTail-flick antinociception was determined using the radiant heat tail-flick technique using an Ugo Basile model 37360 instrument as previously described[95],[96]. The intensity was set to achieve a baseline between 2 and 3 s. Baseline latencies were determined before experimental treatments for all mice. Tail-flick antinociception was assessed as an increase in baseline latency, with a maximal 15 s latency to minimize damage to the tail. Data were analyzed as percent maximal effect, % MPE, and was calculated according to the formula: % MPE = [(observed latency – baseline latency)/(maximal latency – baseline latency)] × 100. Compounds were injected s.c. and antinociception was assessed at the peak effect. Mice were tested for analgesia with cumulative subcutaneous doses of the drug until the mouse can withstand the maximal latency. Once the mouse reached the maximal latency, the mouse was no longer given higher doses. […] In vivo experiments were evaluated using GraphPad Prism 8, San Diego, CA as described above.\n96-well plate (no. 60050; Perkin Elmer; Waltham, MA, USA). At time zero, the luciferase substrate coelenterazine H (5 μM) was added to each well. Ligands were added after 5 min, then BRET signal was measured 10 min later. BRET measurements were performed using a PHERAstar FS plate reader (BMG Labtech, Cary, NC, USA). The BRET signal was calculated as the ratio of the light emitted by the mVenus […]\nDose–response curves were fit using a three-parameter logistic equation in GraphPad Prism 8 (Graphpad Software, La Jolla, CA, USA).\nAll experiments were repeated in at least three independent trials each with triplicate determinations.\nas §1, with “dose-response” for “dose–response”, “g),6-8” for “g), 6–8”, “20-26” for “20–26”, “30-70%.” for “30–70%.”\nFor analgesic testing in knockout animals, wild-type, male C57BL/6 mice (22–33 g), 10-12 weeks were purchased from the Jackson Lab (Bar Harbor, ME). These mice were kept at a constant temperature of 22 ± 2 °C, and relative humidity was maintained at 40-50%. Exon-1/Exon-11 MOR-1 KO mice on a C57 background were bred in the Pintar laboratory at Rutgers University. All mice were maintained on a 12- […]"}},
  "note": "Values joined by “and” are separate entries in the source; they are usually repeats but may differ in a detail not shown here. Equal values may be shown once.",
  "data": [
    {"smiles": "CC[C@@H]1CN2CC[C@@]3(O)C(=Nc4cccc(OC)c43)[C@@H]2C[C@@H]1/C(=C\\OC)C(=O)OC", "note": "[7OH, 7-Hydroxymitragynine, reference compound]", "values": [
      {"measurement": "EC50", "setting": "mMOR", "result": 15, "unit": "nM"},
      {"measurement": "Nb33 BRET assay at mMOR, response", "setting": "mMOR; Log[drug] (M) -5", "result": "31.8558 and 13.6622 and 18.9084 and 19.9525 and 1.3915 and 5.568 and 5.853 and 2.0473 and 9.468"},
      {"measurement": "Nb33 BRET assay at mMOR, response", "setting": "mMOR; Log[drug] (M) -6", "result": "11.2448 and 12.7863 and 8.673 and 7.158 and -2.301 and 5.3956 and -5.256 and 15.8192 and 11.2218"},
      {"measurement": "Nb33 BRET assay at mMOR, response", "setting": "mMOR; Log[drug] (M) -7", "result": "34.9577 and 9.119 and 11.9292 and 16.603 and 7.256 and -0.02541 and 7.483 and 5.463 and 3.637"},
      {"measurement": "Nb33 BRET assay at mMOR, response", "setting": "mMOR; Log[drug] (M) -8", "result": "18.0513 and 18.0293 and 14.3718 and -0.3281 and -6.115 and -12.1072 and 6.0021 and 5.2851 and -7.797"},
      {"measurement": "Nb33 BRET assay at mMOR, response", "setting": "mMOR; Log[drug] (M) -9", "result": "-7.335 and -6.503 and -1.285 and -14.3312 and -4.26 and -7.41 and 7.337 and -0.23 and -1.333"},
      {"measurement": "Nb33 BRET assay at mMOR, response", "setting": "mMOR; Log[drug] (M) -10", "result": "-7.162 and 6.7364 and 17.2382 and -2.279 and -1.22 and 15.6435 and -10.3312 and 4.394 and -8.638"},
      {"measurement": "Nb33 BRET assay at mMOR, response", "setting": "mMOR; Log[drug] (M) -11", "result": "8.105 and -10.4588 and 2.354 and -4.559 and 5.739 and -1.18 and -4.753 and 4.633 and 0.1195"},
      {"measurement": "Emax mMOR", "setting": "mMOR; Nb33 BRET, relative to DAMGO", "result": "~ 20%"},
      {"measurement": "Emax", "setting": "mMOR; read-out: Emax mMOR, Nb33 BRET, relative to DAMGO", "result": "~14", "unit": "%"},
      {"measurement": "ED50 (95% CI) mouse tail-flick", "setting": "mice", "result": "0.57 (0.19–1.7) mg/kg"},
      {"measurement": "Emax", "setting": "hMOR", "result": "~22", "unit": "%"},
      {"measurement": "ED50", "setting": "C57BL/6 mice; Mus musculus, sc, 0.25 h, read-out: ED50 (95% CI) tail-flick, 15 min time point, C57BL/6 mice, n = 10", "result": 0.25, "unit": "mg/kg"},
      {"measurement": "mouse tail-flick assay (%MPE)", "setting": "C57BL/6 mice; dose 0.1, listed as 7-OH mitragynine", "result": "5.405 %MPE and 8.511 %MPE and 8.661 %MPE and 16.5289 %MPE and 34.8214 %MPE and 6.87 %MPE and 7.627 %MPE and -5.556 %MPE and 0.7299 %MPE and 3.6036 %MPE"},
      {"measurement": "mouse tail-flick assay (%MPE)", "setting": "C57BL/6 mice; dose 0.3, listed as 7-OH mitragynine", "result": "36.036 %MPE and 12.0567 %MPE and 36.2205 %MPE and 44.6281 %MPE and 52.6786 %MPE and 100 %MPE (3×) and 73.7288 %MPE and 72.2628 %MPE"},
      {"measurement": "mouse tail-flick assay (%MPE)", "setting": "C57BL/6 mice; dose 1", "result": 100, "unit": "%MPE"},
      {"measurement": "analgesic efficacy (Emax)", "setting": "C57BL/6 mice; 15 min time point, C57BL/6 mice, 7OH normalized to 100%", "result": 100, "unit": "%"}
    ]}
  ]
}
